Results published in ChEMBL document CHEMBL5723584 (2023).
Active and inactive are the calls of the source. No cut-off for these calls is given here.

Tests used:
[1] = biological target: CDC7/Cyclin B1 (Homo sapiens) (UniProt P14635+O00311); test: activity of Cdc7/cyclinB1(h) at 1.0 µM in the Eurofins Kinase panel; format: protein-complex assay; details: Compound concentration 1.0 uM
[2] = biological target: Tyrosine-protein kinase ABL2 (Homo sapiens) (UniProt P42684); test: activity of Arg(h) at 1.0 µM in the Eurofins Kinase panel; details: Compound concentration 1.0 uM
[3] = biological target: Serine/threonine-protein kinase tousled-like 2 (Homo sapiens) (UniProt Q86UE8); test: activity of TLK2(h) at 1.0 µM in the Eurofins Kinase panel; details: Compound concentration 1.0 uM
[4] = biological target: MAP kinase-activated protein kinase 5 (Homo sapiens) (UniProt Q8IW41); test: activity of PRAK(h) at 1.0 µM in the Eurofins Kinase panel; details: Compound concentration 1.0 uM
[5] = biological target: Vascular endothelial growth factor receptor 3 (Homo sapiens) (UniProt P35916); test: activity of Flt4(h) at 1.0 µM in the Eurofins Kinase panel; details: Compound concentration 1.0 uM
[6] = biological target: Serine/threonine-protein kinase A-Raf (Homo sapiens) (UniProt P10398); test: activity of A-Raf(h) at 1.0 µM in the Eurofins Kinase panel; details: Compound concentration 1.0 uM
[7] = biological target: Cyclin-G-associated kinase (Homo sapiens, UniProt O14976); test: Promega NanoBRET (GAK)
[8] = biological target: Protein-tyrosine kinase 2-beta (Homo sapiens) (UniProt Q14289); test: activity of Pyk2(h) at 1.0 µM in the Eurofins Kinase panel; details: Compound concentration 1.0 uM
[9] = biological target: Ephrin type-A receptor 8 (Homo sapiens) (UniProt P29322); test: activity of EphA8(h) at 1.0 µM in the Eurofins Kinase panel; details: Compound concentration 1.0 uM
[10] = biological target: Serine/threonine-protein kinase Chk1 (Homo sapiens) (UniProt O14757); test: activity of CHK1(h) at 1.0 µM in the Eurofins Kinase panel; details: Compound concentration 1.0 uM
[11] = biological target: Serine/threonine-protein kinase MRCK alpha (Homo sapiens) (UniProt Q5VT25); test: activity of MRCKalpha(h) at 1.0 µM in the Eurofins Kinase panel; details: Compound concentration 1.0 uM
[12] = biological target: MAP kinase-interacting serine/threonine-protein kinase 2 (Homo sapiens, UniProt Q9HBH9); test: Promega NanoBRET (MKNK2)
[13] = biological target: Ribosomal protein S6 kinase beta-1 (Homo sapiens) (UniProt P23443); test: activity of p70S6K(h) at 1.0 µM in the Eurofins Kinase panel; details: Compound concentration 1.0 uM
[14] = biological target: Mitogen-activated protein kinase kinase kinase kinase 4 (Homo sapiens) (UniProt O95819); test: activity of MAP4K4(h) at 1.0 µM in the Eurofins Kinase panel; details: Compound concentration 1.0 uM
[15] = biological target: Serine/threonine-protein kinase MRCK gamma (Homo sapiens) (UniProt Q6DT37); test: activity of MRCKgamma(h) at 1.0 µM in the Eurofins Kinase panel; details: Compound concentration 1.0 uM
[16] = biological target: Hepatocyte growth factor receptor (Homo sapiens) (UniProt P08581); test: activity of Met(h) at 1.0 µM in the Eurofins Kinase panel; details: Compound concentration 1.0 uM
Sequence of Hepatocyte growth factor receptor (Homo sapiens) (P08581 whole entry): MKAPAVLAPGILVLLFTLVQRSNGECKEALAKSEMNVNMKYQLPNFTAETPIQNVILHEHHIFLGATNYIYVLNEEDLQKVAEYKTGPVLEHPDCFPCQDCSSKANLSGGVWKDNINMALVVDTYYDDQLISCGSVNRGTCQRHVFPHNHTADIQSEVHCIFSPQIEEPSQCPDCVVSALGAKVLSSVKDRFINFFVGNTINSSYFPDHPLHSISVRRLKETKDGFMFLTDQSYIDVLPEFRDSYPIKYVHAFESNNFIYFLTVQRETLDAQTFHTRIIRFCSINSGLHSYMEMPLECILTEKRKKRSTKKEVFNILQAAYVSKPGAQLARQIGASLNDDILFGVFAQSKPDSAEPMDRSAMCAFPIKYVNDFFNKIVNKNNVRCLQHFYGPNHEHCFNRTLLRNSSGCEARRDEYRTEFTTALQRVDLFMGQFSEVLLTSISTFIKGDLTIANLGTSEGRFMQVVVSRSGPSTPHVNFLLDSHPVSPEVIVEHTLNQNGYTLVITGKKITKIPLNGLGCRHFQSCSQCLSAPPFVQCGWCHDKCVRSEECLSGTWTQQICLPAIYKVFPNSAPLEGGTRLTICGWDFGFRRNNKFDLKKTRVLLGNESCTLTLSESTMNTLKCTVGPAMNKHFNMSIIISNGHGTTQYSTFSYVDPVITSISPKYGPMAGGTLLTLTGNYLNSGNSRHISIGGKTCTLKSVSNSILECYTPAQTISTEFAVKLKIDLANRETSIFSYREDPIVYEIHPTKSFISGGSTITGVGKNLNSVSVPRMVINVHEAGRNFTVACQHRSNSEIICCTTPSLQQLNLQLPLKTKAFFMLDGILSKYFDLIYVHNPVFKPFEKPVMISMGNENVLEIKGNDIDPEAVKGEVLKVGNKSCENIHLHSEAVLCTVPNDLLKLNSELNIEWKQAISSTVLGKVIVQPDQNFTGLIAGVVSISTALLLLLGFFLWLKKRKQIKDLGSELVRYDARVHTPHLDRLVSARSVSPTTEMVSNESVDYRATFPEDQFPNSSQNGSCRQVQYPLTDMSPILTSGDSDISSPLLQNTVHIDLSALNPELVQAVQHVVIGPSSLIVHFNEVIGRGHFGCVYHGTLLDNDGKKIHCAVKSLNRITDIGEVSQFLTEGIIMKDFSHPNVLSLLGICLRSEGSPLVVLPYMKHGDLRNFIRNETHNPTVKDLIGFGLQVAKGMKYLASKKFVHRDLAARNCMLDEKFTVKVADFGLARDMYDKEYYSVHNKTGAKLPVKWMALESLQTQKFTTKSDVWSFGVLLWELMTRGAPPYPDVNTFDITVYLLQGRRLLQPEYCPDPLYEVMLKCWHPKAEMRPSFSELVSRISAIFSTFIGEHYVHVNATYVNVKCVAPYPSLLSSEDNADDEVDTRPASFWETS

[17] = biological target: Testis-specific serine/threonine-protein kinase 4 (Homo sapiens) (UniProt Q6SA08); test: activity of TSSK4(h) at 1.0 µM in the Eurofins Kinase panel; details: Compound concentration 1.0 uM
Sequence of Testis-specific serine/threonine-protein kinase 4 (Homo sapiens) (Q6SA08 whole entry): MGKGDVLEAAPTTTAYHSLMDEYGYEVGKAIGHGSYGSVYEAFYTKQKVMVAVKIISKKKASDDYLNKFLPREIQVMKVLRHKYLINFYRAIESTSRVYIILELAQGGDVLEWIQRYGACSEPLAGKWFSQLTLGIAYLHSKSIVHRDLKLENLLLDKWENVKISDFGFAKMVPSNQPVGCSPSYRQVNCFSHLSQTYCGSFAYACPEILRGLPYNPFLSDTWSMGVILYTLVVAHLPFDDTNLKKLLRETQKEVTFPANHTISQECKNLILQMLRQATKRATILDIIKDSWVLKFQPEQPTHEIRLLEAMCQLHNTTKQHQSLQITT

[18] = biological target: Glycogen synthase kinase-3 alpha (Homo sapiens) (UniProt P49840); test: activity of GSK3alpha(h) at 1.0 µM in the Eurofins Kinase panel; details: Compound concentration 1.0 uM
[19] = biological target: Cyclin-Y/Cyclin-dependent kinase 16 (Homo sapiens) (UniProt Q00536+Q8ND76); test: activity of CDK16/cyclinY(h) at 1.0 µM in the Eurofins Kinase panel; format: protein-complex assay; details: Compound concentration 1.0 uM
[20] = biological target: Phosphatidylinositol 3-kinase C2 domain-containing subunit gamma (Homo sapiens) (UniProt O75747); test: activity of PI3KC2gamma(h) at 1.0 µM in the Eurofins Kinase panel; details: Compound concentration 1.0 uM
[21] = biological target: Homeodomain-interacting protein kinase 4 (Homo sapiens, UniProt Q8NE63); test: Promega NanoBRET (HIPK4)
[22] = biological target: Calcium/calmodulin-dependent protein kinase type 1G (Homo sapiens) (UniProt Q96NX5); test: activity of CaMKIgamma(h) at 1.0 µM in the Eurofins Kinase panel; details: Compound concentration 1.0 uM
[23] = biological target: Serine/threonine-protein kinase MARK2 (Homo sapiens) (UniProt Q7KZI7); test: activity of PAR-1Balpha(h) at 1.0 µM in the Eurofins Kinase panel; details: Compound concentration 1.0 uM
[24] = biological target: Mitogen-activated protein kinase 9 (Homo sapiens) (UniProt P45984); test: activity of JNK2alpha2(h) at 1.0 µM in the Eurofins Kinase panel; details: Compound concentration 1.0 uM
[25] = biological target: Ephrin type-A receptor 2 (Homo sapiens) (UniProt P29317); test: activity of EphA2(h) at 1.0 µM in the Eurofins Kinase panel; details: Compound concentration 1.0 uM
[26] = biological target: Mitogen-activated protein kinase 14 (Homo sapiens) (UniProt Q16539); test: activity of SAPK2a(h) at 1.0 µM in the Eurofins Kinase panel; details: Compound concentration 1.0 uM
Sequence of Mitogen-activated protein kinase 14 (Homo sapiens) (Q16539 whole entry): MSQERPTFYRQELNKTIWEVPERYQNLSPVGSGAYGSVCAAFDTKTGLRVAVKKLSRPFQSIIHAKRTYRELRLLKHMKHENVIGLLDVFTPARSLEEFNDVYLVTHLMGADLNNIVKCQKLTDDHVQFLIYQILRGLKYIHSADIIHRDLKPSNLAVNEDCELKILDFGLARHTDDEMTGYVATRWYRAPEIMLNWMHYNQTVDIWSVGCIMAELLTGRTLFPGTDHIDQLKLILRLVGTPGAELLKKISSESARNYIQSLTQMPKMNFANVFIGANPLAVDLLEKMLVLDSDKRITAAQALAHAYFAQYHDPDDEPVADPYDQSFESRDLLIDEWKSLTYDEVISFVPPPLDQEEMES

[27] = biological target: Insulin receptor-related protein (Homo sapiens) (UniProt P14616); test: activity of IRR(h) at 1.0 µM in the Eurofins Kinase panel; details: Compound concentration 1.0 uM
[28] = biological target: SNF-related serine/threonine-protein kinase (Homo sapiens) (UniProt Q9NRH2); test: activity of SNRK(h) at 1.0 µM in the Eurofins Kinase panel; details: Compound concentration 1.0 uM
[29] = biological target: Fibroblast growth factor receptor 1 (Homo sapiens) (UniProt P11362); test: activity of FGFR1(h) at 1.0 µM in the Eurofins Kinase panel; details: Compound concentration 1.0 uM
[30] = biological target: High affinity nerve growth factor receptor (Homo sapiens) (UniProt P04629); test: activity of TrkA(h) at 1.0 µM in the Eurofins Kinase panel; details: Compound concentration 1.0 uM
[31] = biological target: Serine/threonine-protein kinase 35 (Homo sapiens) (UniProt Q8TDR2); test: activity of CLIK1(h) at 1.0 µM in the Eurofins Kinase panel; details: Compound concentration 1.0 uM
[32] = biological target: Insulin receptor (Homo sapiens) (UniProt P06213); test: activity of IR(h) at 1.0 µM in the Eurofins Kinase panel; details: Compound concentration 1.0 uM
[33] = biological target: Citron Rho-interacting kinase (Homo sapiens, UniProt O14578); test: Promega NanoBRET (CIT)
[34] = biological target: [Pyruvate dehydrogenase (acetyl-transferring)] kinase isozyme 2, mitochondrial (Homo sapiens) (UniProt Q15119); test: activity of PDHK2(h) at 1.0 µM in the Eurofins Kinase panel; details: Compound concentration 1.0 uM
[35] = biological target: Tyrosine-protein kinase ITK/TSK (Homo sapiens) (UniProt Q08881); test: activity of Itk(h) at 1.0 µM in the Eurofins Kinase panel; details: Compound concentration 1.0 uM
[36] = biological target: cAMP-dependent protein kinase catalytic subunit alpha (Homo sapiens, UniProt P17612); test: Promega NanoBRET (PRKACA)
[37] = biological target: Transcription initiation factor TFIID subunit 1-like (Homo sapiens) (UniProt Q8IZX4); test: activity of TAF1L(h) at 1.0 µM in the Eurofins Kinase panel; details: Compound concentration 1.0 uM
Sequence of Transcription initiation factor TFIID subunit 1-like (Homo sapiens) (Q8IZX4 whole entry): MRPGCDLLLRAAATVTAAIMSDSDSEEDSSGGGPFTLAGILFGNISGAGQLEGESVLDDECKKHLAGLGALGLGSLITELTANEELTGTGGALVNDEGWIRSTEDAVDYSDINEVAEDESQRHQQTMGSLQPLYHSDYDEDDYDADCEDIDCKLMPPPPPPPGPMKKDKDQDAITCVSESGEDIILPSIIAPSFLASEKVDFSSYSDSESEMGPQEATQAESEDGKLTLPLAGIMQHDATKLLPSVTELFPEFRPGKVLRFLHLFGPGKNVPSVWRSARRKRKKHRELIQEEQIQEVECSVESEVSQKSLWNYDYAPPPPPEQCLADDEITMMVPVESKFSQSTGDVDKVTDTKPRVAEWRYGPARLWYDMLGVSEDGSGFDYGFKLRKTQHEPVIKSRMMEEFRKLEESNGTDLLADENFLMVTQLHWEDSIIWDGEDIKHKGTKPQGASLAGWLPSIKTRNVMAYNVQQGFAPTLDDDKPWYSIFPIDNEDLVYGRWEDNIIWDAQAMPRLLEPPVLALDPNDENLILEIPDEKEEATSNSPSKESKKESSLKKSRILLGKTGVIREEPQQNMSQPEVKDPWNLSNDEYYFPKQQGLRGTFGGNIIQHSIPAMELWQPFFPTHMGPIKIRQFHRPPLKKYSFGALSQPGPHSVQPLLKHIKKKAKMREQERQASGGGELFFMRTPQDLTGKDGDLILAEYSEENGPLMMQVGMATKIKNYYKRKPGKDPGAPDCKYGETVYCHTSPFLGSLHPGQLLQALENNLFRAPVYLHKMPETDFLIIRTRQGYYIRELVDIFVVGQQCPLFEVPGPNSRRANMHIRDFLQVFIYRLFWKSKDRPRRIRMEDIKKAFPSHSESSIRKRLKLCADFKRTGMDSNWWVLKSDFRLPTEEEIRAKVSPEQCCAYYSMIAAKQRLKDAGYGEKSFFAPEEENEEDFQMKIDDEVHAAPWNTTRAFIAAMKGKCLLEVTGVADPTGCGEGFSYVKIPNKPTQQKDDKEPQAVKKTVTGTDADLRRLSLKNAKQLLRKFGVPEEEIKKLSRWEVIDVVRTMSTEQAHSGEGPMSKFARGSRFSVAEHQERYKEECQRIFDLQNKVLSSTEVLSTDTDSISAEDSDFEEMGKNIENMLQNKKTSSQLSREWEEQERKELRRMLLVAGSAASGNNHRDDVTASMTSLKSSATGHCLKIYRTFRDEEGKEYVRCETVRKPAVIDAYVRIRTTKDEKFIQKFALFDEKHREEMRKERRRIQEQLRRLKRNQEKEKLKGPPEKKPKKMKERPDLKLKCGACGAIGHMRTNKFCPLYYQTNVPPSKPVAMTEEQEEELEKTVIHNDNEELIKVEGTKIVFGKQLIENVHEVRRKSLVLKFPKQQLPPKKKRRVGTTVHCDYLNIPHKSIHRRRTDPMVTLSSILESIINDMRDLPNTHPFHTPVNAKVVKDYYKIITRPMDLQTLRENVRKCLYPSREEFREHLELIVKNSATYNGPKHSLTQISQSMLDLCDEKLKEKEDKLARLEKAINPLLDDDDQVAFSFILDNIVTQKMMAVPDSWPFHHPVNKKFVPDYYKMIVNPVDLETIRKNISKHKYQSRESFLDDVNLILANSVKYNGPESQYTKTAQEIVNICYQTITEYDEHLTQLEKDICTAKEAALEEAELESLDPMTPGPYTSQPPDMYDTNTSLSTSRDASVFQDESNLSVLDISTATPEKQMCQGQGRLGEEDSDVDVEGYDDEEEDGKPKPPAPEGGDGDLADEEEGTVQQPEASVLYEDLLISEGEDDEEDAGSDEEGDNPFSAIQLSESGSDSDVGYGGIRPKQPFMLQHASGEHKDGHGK

[38] = biological target: mTOR/FKBP12A/FKBP12B (Homo sapiens) (UniProt P62942+P68106+P42345); test: activity of mTOR/FKBP12(h) at 1.0 µM in the Eurofins Kinase panel; format: protein-complex assay; details: Compound concentration 1.0 uM
Sequence of mTOR/FKBP12A/FKBP12B (Homo sapiens) (P62942 2-108 limits assumed, other chains not shown): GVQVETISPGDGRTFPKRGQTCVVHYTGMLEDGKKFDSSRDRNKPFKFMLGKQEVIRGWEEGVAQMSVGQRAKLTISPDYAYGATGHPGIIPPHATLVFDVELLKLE
Sequence of mTOR/FKBP12A/FKBP12B (Homo sapiens) (P68106 whole entry partner, other chains not shown): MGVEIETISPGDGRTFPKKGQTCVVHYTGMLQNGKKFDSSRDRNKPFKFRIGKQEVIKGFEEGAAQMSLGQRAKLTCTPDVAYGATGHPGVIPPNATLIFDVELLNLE

[39] = biological target: Mitogen-activated protein kinase kinase kinase kinase 3 (Homo sapiens) (UniProt Q8IVH8); test: activity of MAP4K3(h) at 1.0 µM in the Eurofins Kinase panel; details: Compound concentration 1.0 uM
Sequence of Mitogen-activated protein kinase kinase kinase kinase 3 (Homo sapiens) (Q8IVH8 whole entry): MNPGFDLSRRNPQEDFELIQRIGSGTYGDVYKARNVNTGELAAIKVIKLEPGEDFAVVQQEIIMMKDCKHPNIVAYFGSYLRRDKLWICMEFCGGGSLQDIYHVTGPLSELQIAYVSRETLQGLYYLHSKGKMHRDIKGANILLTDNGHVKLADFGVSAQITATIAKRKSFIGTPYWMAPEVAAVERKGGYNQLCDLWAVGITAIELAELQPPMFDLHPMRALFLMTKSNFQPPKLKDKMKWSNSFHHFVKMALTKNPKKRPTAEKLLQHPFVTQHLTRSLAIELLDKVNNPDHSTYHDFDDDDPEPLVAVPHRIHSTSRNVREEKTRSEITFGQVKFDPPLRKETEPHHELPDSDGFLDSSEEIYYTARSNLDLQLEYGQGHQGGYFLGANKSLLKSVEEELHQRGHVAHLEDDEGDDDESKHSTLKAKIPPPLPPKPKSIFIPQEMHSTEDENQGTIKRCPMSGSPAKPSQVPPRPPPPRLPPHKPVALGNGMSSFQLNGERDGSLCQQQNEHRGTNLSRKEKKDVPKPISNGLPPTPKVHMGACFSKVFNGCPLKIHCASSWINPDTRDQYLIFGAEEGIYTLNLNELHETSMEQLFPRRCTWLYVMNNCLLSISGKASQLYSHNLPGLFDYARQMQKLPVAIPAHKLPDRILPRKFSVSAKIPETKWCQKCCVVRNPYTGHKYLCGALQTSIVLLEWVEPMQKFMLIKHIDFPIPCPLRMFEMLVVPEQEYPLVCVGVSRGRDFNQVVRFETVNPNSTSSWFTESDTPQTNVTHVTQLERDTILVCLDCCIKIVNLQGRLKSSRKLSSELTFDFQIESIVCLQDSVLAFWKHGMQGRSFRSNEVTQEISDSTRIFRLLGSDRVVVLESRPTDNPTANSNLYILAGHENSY

## Cc1cc2c(-c3ccc(NC(=O)[C@H](N)CC(C)(C)C)cc3C)ccnc2[nH]1
[1]
  activity: 75%
[2]
  activity: 72%
[3]
  activity: 92%
[4]
  activity: 107%
[5]
  activity: 96%
[6]
  activity: 97%
[7]
  IC50: > 10 µM (not active)
[8]
  activity: 76%
[9]
  activity: 115%
[10]
  activity: 108%
[11]
  activity: 94%
[12]
  IC50: 5.5 µM (not active)
[13]
  activity: 93%
[14]
  activity: 101%
[15]
  activity: 98%
[16]
  activity: 90%
[17]
  activity: 117%
[18]
  activity: 87%
[19]
  activity: 98%
[20]
  activity: 103%
[21]
  IC50: > 10 µM (not active)
[22]
  activity: 110%
[23]
  activity: 88%
[24]
  activity: 99%
[25]
  activity: 95%
[26]
  activity: 94%
[27]
  activity: 110%
[28]
  activity: 111%
[29]
  activity: 100%
[30]
  activity: 105%
[31]
  activity: 97%
[32]
  activity: 94%
[33]
  IC50: 0.051 µM (active)
[34]
  activity: 87%
[35]
  activity: 86%
[36]
  IC50: > 10 µM (not active)
[37]
  activity: 101%
[38]
  activity: 120%
[39]
  activity: 109%
